Measured values as given in patent publication US9988680B2, “Non-natural nucleosides as theranostic agents” (Case Western Reserve University, priority 2011, dated 2018).

Tests used:
[1] = biological target: T1, terminal deoxynucleotidyl transferase (TdT) (Bos taurus, UniProt P06526); assay: Incorporation of natural and non-natural nucleotides by TdT (polymerization assay, Michaelis-Menten kinetics); type: biochemical
Protocol: All enzymatic assays were performed as previously described. […] Reactions were quenched with 200 Mm EDTA at variable times (5-600 s) and analyzed using denaturing gel electrophoresis. Time courses in product formation were fitted using eq 1: Y=mt+b(1) (1)
where y is the amount of product, m is the rate of the reaction, t is time, and b is the Y-intercept. Km and Vmax values were determined by fits of the data points to the Michaelis-Menten equation: […]
where Vmax is the maximal rate of nucleotide incorporation, Km is the Michaelis constant for dNTP, and [dNTP] is the concentration of nucleotide substrate. The IC50 value for 3-Eth-5-NITP was obtained using a nonlinear regression curve fit of the data to eq 3:
The biological function of TdT is to expand immunological diversity by randomly incorporating dNTPs into single-stranded DNA during V(D)J recombination. […] TdT also utilizes nucleotide analogues including 2′,3′-dideoxynucleotides, dinucleoside 5′,5′-tetraphosphates, and intrinsically fluorescent nucleotide analogues. In this report, we tested if TdT also incorporates indolyl-2′-deoxyribose-5′-triphosphates that bear non-natural moieties such as ethynyl and nitro groups at the 3- and 5-position, respectively, of the indole base. […] Aliquots of the reaction were quenched with EDTA at variable time points, and the polymerization reactions were then subjected to denaturing polyacrylamide gel electrophoresis to separate extended primers from unreacted substrate.
Time courses in product formation were generated using pseudo-first order reaction conditions in which 6 units of TdT were incubated with 1.5 μM DNA substrate and mixed with variable concentrations of non-natural nucleotide (0.05-50 μM). Each time course was fit to an equation for a straight line to define the rate of nucleotide incorporation (data not shown).

[2] = biological target: T1, terminal deoxynucleotidyl transferase (TdT); assay: as above; type: biochemical; conditions: reaction times of up to 20 min

T1 sequence (P06526 whole entry): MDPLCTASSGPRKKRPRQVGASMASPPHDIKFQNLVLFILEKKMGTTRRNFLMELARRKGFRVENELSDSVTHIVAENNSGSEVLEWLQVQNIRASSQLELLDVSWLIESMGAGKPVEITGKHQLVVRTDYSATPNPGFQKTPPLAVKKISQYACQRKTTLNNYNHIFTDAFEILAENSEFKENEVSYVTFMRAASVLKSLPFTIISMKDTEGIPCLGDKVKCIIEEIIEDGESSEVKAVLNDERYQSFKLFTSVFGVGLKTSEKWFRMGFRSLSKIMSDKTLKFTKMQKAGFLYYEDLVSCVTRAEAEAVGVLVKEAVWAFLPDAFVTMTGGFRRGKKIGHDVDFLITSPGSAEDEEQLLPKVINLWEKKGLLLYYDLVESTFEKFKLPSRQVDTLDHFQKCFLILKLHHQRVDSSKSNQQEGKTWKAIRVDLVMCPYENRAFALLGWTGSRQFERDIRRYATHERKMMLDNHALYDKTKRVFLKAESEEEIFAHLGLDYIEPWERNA

## C#Cc1cn(C2CC(O)C(COP(=O)(O)OP(=O)(O)OP(=O)(O)O)O2)c2ccc([N+](=O)[O-])cc12 (stereo not drawn) [3-Eth-5-NITP, 3-ethynyl-5-nitroindolyl-2′-deoxyribose-5′-triphosphate]
[1]; 100 μM nucleotide, 6 units TdT, 1.5 μM 14-mer (FIG. 2B)
  utilization by TdT (elongation of 14-mer DNA substrate): utilized by TdT as efficiently as the natural purines
[1]; 100 μM nucleotide, 14-mer DNA, gel (FIG. 2B)
  extension by TdT beyond the incorporated nucleotide: poorly extended
[1]; incorporation by TdT, 6 units TdT, 1.5 μM single-stranded DNA substrate
  Vmax: 3.2 ± 0.1 nM/s
[1]; relative to 5-NITP
  catalytic efficiency higher than that for 5-NITP: 7 fold
  decrease in Vmax: 3.5 fold
[2]
  extension by TdT beyond the incorporated nucleotide at longer reaction times: not observed
